# Data taken from US20090274642A1, “Hair Care Compositions for Preventing Oxidative Damage to Hair, Methods of Use, and Methods of Marketing Such Compositions” (priority 2008, published 2009).
# Key:
# Malassezia = assay: Level of Malassezia after anti-dandruff actives delivered from shampoo; format: in vivo; settings: 1% active in shampoo formulation, after two weeks of usage; FIG. 5
# Description: From left to right, the bars on the graph represent: 1% SeS2, 1% ZPT, 1% Climbazole, None (Control), 1% Platelet ZPT, 1SeS2, and 1% Ketoconazole.
# [1] = Amplex assay, 10 μM H2O2 manually added to AMP dye; format: biochemical; settings: 10 μM H2O2 added to AMP dye; pH=7.4; FIG. 3
# Description: FIG. 3 is a graph showing the amplex fluorescence signal produced when 10 μM H2O2 is manually added to AMP dye.
# Malassezia cells = assay: Amplex ultra red (AMP dye) fluorescence, Malassezia cells on unsaturated lipophilic substrate; format: cell-based; settings: pH 5.5; ethoxyquin added to the mixture; FIG. 2
SMILES,level of Malassezia (Malassezia),amplex fluorescence signal produced by H2O2 [1],fluorescence signal due to the action of Malassezia on substrate (Malassezia cells)
"CC(C)(C)C(=O)C(Oc1ccc(Cl)cc1)n1ccnc1 (stereo not shown) [Climbazole, climbazole]",decreased level,–,–
"CC(=O)N1CCN(c2ccc(OCC3COC(Cn4ccnc4)(c4ccc(Cl)cc4Cl)O3)cc2)CC1 (stereo not shown) [Ketoconazole, ketoconazole]",decreased level,–,–
[O-][n+]1ccccc1[S-].[O-][n+]1ccccc1[S-].[Zn+2] [Platelet ZPT],decreased level,–,–
"S=[Se]=S [SeS2, selenium sulfide]",decreased level,–,–
"[O-]n1ccccc1=S.[O-]n1ccccc1=S.[Zn+2] [ZPT, zinc salt of 1-hydroxy-2-pyridinethione]",decreased level,–,–
CCOc1ccc2c(c1)C(C)=CC(C)(C)N2 [ethoxyquin],–,quenched,quenched
